Potency and outcome data for 58 compounds are collected here from PubChem BioAssay AID1188 (EPA DSSTox, 2008).

The source made the active and inactive calls.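 The calls were made as follows: active = a concentration killing half the fathead minnows in the acute test was determined; inconclusive = some fish died but not half at top dose; inactive = no fish died even at top dose.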

The data set has as its system Fathead minnow (Pimephales promelas) acute toxicity, lethality. The experiment in a line: DSSTox (EPAFHM) EPA Fathead Minnow Acute Toxicity. In short, it runs like this: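 Activity score is an integer 1–100 scaling of log10(1/LC50 in mmol) between dataset minimum and maximum, highest potency = 100. Underlying LC50 values (mg) come from the U.S. EPA MED database.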
`COc1cc(O)c(C=O)c(OC)c1`: the Potency was 14.7 µM.
Same read-out and setting: as for `CC(C)SSC(C)C`, the figure is 55.3 µM; as for `NC(=O)c1ccccc1N`, 2900 µM.
The same measure, in the same setting: as for `C[N+](C)(C)C`, the figure is 4220 µM.
Regarding `CC(C)(O)C(F)(F)C(F)F`, the Potency is 3640 µM.
On the same count and under the same terms, as for `O=P(Oc1ccccc1)(Oc1ccccc1)Oc1ccccc1`, the figure is 2.66 µM; as for `CCCCCC(=O)O`, 2760 µM.
On to `COCCN`, for which the Potency was 6980 µM.
Still for that read-out and setting: the value for `CCc1cccc(CC)c1` was 30.9 µM; that for `CCN(CC)CCCC(C)=O` was 2140 µM; that for `IC(I)I` was 7.42 µM.
Consider `C=Cc1ccc(C(C)(C)C)cc1`, for which the Potency was 3.06 µM.
Still for that read-out and setting: as for `C=CC(=O)OCCO`, the figure is 41.4 µM; as for `CC1CNCC(C)O1` (stereo not drawn), 3360 µM; as for `COCCCNCc1cc(OC)c(OC)c(OC)c1`, 505 µM.
Turning to `CCO`, the Potency was 319000 µM.
On the same count and under the same terms, as for `CCCCCCBr`, the figure is 20.9 µM.
As for `Cc1ccc(OP(=O)(Oc2ccc(C)c(C)c2)Oc2ccc(C)c(C)c2)cc1C`, the outcome was “inactive; moa not determined either due to lack of toxicity at saturation or late test res”.
With `Cc1ccc(SSc2ccc(C)cc2)cc1`, the outcome is “inactive; moa not determined either due to lack of toxicity at saturation or late test res”.
As to `CCN(CC)c1ccccc1`, the Potency was 110 µM.
On the same count and under the same terms, the value for `COc1cc(OC)c(OC)cc1C=O` was 252 µM; that for `CC(Cl)CCl` (stereo not drawn) was 1120 µM.
Still for that read-out and setting: as for `c1ccncc1`, the figure is 1260 µM; as for `CC(O)CC(C)(C)O` (stereo not drawn), 90500 µM.
The same measure, in the same setting: as for `COc1cc(Cl)c(Cl)cc1O`, the figure is 23.2 µM.
`CO`: the outcome is “active; baseline narcosis”.
Consider `c1ccc2occc2c1`, for which the Potency is 119 µM.
In the case of `CN(C)c1ccccn1`, the Potency is 1040 µM.
Same read-out and setting: the value for `CCCCCCCN` was 189 µM.
For `CC(C)(c1cc(Cl)c(O)c(Cl)c1)c1cc(Cl)c(O)c(Cl)c1`, the Potency is 3.63 µM.
The same measure, in the same setting: as for `CCCSCCSCCC`, the figure is 42.2 µM; as for `O=[N+]([O-])c1ccc(Oc2ccccc2)cc1`, 12.3 µM.
The same measure, in the same setting: the value for `O=Cc1c(F)c(F)c(F)c(F)c1F` was 5.61 µM.
`Cc1cc2nc3c(=O)[nH]c(=O)nc-3n(C[C@H](O)[C@H](O)[C@H](O)CO)c2cc1C`: the outcome was “inactive; moa not determined either due to lack of toxicity at saturation or late test res”.
On to `CCCCCCCCOc1ccccc1NC(C)=O`, for which the Potency was 1.71 µM.
Take `c1ccccc1`: the Potency is 225 µM.
Same read-out and setting: the value for `COc1ccc(OC)cc1` was 847 µM; that for `OCCCc1cccnc1` was 1090 µM; that for `COc1ccc(OC)c(C(=O)CBr)c1` was 2.55 µM.
Still for that read-out and setting: the value for `CCOc1ccc(N)c([N+](=O)[O-])c1` was 143 µM; that for `CNc1ccccc1` was 933 µM.
For the compound `CN(C)c1ccccc1`, the Potency was 529 µM.
As for `CCOP(=S)(OCC)SCSC(C)(C)C`, the Potency is 0.0461 µM.
Consider `CCCCCCCCCCO`, for which the Potency was 15.2 µM.
Still for that read-out and setting: as for `CCCCCCCCCc1ccc(O)cc1`, the figure is 0.635 µM.
Take `OCCOCCOCCO`: the Potency was 459000 µM.
Still for that read-out and setting: the value for `COc1ccc(C=O)c(OC)c1` was 121 µM.
Turning to `CCNCCO`, the Potency is 16600 µM.
Consider `CC1(C)CC(=O)CC(=O)C1`, for which the Potency is 82000 µM.
Consider `CCCC(C)C1(CC)C(=O)N=C(S)NC1=O` (stereo not drawn), for which the Potency was 99.1 µM.
The same measure, in the same setting: as for `C[CH2][Sn]([CH2]C)([CH2]C)[CH2]C`, the figure is 0.0468 µM.
As for `c1ccc2ccccc2c1`, the Potency is 47.9 µM.
Same read-out and setting: as for `NC(=O)c1cccc(Br)c1`, the figure is 463 µM; as for `c1ccc(-c2cccc(-c3ccccc3)n2)cc1`, 0.908 µM; as for `C=CCO`, 5.51 µM.
Same read-out and setting: the value for `COP(=S)(OC)SCn1nnc2ccccc2c1=O` was 0.202 µM; that for `c1ccc(CC2=NCCN2)cc1` was 1800 µM; that for `CNC(=O)O/N=C(\C)SC` was 13 µM.
